In patent US20150064111A1, “NOVEL TARGETING AGENTS FOR DIAGNOSTIC AND THERAPEUTIC INDICATIONS” (APOSENSE LTD., priority 2012, published 2015):

Columns and labels:
[1] = tested on: CD95-treated Jurkat cells; assay: In-vitro screening: uptake of tritiated compounds into apoptotic Jurkat cells; assay type: cell-based; conditions: tritiated compound, 30 minutes, 37° C., beta-counter; control untreated uptake set as 1
Method: Uptake was measured using beta counter. zVAD treated cells reversed the phenotype decreasing uptake to control values (set as 1) in all tested candidates. Shown are means±SD of three independent experiments performed in triplicates.
For in-vitro screening of the compounds of the invention, apoptosis-induction model in hematopoietic derived cancer cell line, Jurkat was used.
Jurkat cells were cultured in RPMI supplemented with 10% fetal bovine serum, 4 mM L-glutamine, 100 U/ml penicillin and 100 n/ml streptomycin in a humidified incubator at 37° C., 5% CO2. Cells were counted and re-suspended in hepes buffer saline (HBS).
Apoptosis induction: 10^7 cells/ml were incubated for two hours with 0.1 n/ml of anti-Fas (CD95) antibody. For apoptosis inhibition (specific control), induced and control cells were incubated with 50 μM of the specific caspase inhibitor, Zvad. 2 μl Ci of the tritiated compounds or ML-10 as reference, were added to the cells for 30 minutes. All incubations were performed at 37° C. After incubation with the tritiated compounds, cells were washed twice in HBS, transferred to scintillation liquid and radioactivity was monitored using beta-counter. The percentage of uptake was calculated using the standard DPM readings. […]

[2] = Pharmacokinetic evaluation of tritiated candidates in naive and chemotherapy treated mice; conditions: mouse, in vivo
Description: (§1) In order to determine the pharmacokinetics properties of APO-698, its unlabeled analog, APO-697 was used. Table-1 summarizes the pharmacokinetic study performed in CD1 mice for the two unlabeled (cold) analogs, ML-10 and APO-697.

[3] = tested on: human colorectal cancer cells HCT-116 xenografts; assay: In-vivo screening: tumor/blood uptake ratio in HCT-116 xenografts; design: species or system Athymic nude mice; conditions: intravenous tritiated compound, HCT-116 xenograft, FIG. 2 (one and a half hours before samples collection)
Method: Athymic nude mice were inoculated with HCT-116 human colorectal cancer cells. Mice were subjected to intravenous injection of tritiated ML-10 and APO-650 one and a half hours before samples collection. Blood samples were taken before sacrificing the animals. Blood and tumor samples radioactivity was measured in a beta-counter.
In order to assess the in-vivo accumulation of ML-10 and compounds of the invention, the uptake into human colorectal cancer cells HCT-116 xenografts was monitored. Athymic nude mice were subcutaneously inoculated with […] HCT-116 cells. After the formation of tumors, ML-10 and APO-650 were intravenously administrated to the mice, 30 and 90 minutes before scarification (n≧8). Peripheral blood samples were collected prior to animals' scarification. Tumors were dissected, homogenized and all samples were calibrated in scintillation fluid before radioactivity was measured in a beta-counter. To inspect signal to noise ratio, the ratio of uptake into the tumor versus blood was calculated.

[4] = Blood partitioning (red blood cells/plasma); assay type: in vitro ADME; conditions: mouse blood
Description: as §1

[5] = Pharmacokinetic study of unlabeled (cold) analogs in CD1 mice; assay type: in vivo; conditions: for AUC(0-inf) / half-life / clearance / Vd: mouse, in vivo; for clearance: read-out: Total clearance (converted); for Vd: read-out: Vss; for Total clearance, percentage in brackets / Vss, percentage in brackets: reference of the percentage not explained
Description: as §1

| half-life ([2]; t1/2) [min] | Compound | fold increase uptake of CD95-treated cells (uptake of the tracer into the apoptotic cells) [1] | KRBC/PL [4] | AUC(0-inf) ([5]; unlabeled compound) [ng·h/mL] | half-life ([5]; unlabeled compound) [min] | clearance ([5]; unlabeled compound) [mL/min/kg] | Vd ([5]; unlabeled compound) [L/kg] | Total clearance, percentage in brackets [5] | Vss, percentage in brackets [5] | also measured |
| --- | --- | --- | --- | --- | --- | --- | --- | --- | --- | --- |
| – | CC(CCCCC[18F])(c1nnn[nH]1)c1nnn[nH]1 [APO-600, 5,5′(7-^18fluoroheptane-2,2-diyl)bis(1H-tetrazole)] | high uptake | – | – | – | – | – | – | – | – |
| 10 | O=C(O)c1ccc(CCC[18F])cc1C(=O)O [APO-630, 4-(3-^18fluoropropyl)phthalic acid] | high uptake | – | – | – | – | – | – | – | – |
| 8 | CN(CCCCC(C)(C(=O)O)C(=O)O)c1ncc([N+](=O)[O-])s1 [APO-650, 2-methyl-2-{4-[(5-nitro-1,3-thiazol-2-yl)tritritiummethylamino]butyl}propanedioic acid] | – | – | – | – | – | – | – | – | tumor/blood ratio [3]: six-fold |
| – | COc1cc2c(c(OC)c1OC)-c1ccc(OC)c(=O)cc1[C@@H](NC(=O)CCCCCC(C)(C(=O)O)C(=O)O)CC2 [APO-697, 2-methyl-2-(5-{[(10S)-3,4,5,14-tetramethoxy-13-oxotricyclo[9.5.0.0{2,7}]hexadeca-1(16),2,4,6,11,14-hexaen-10-yl]carbamoyl}pentyl)propanedioic acid] | – | 0.07 | 5.16 | 7.92 | 64.7 | 0.435 | (71.9%) | (60.0%) | Total clearance ([5]; unlabeled compound): higher; Vss ([5]; unlabeled compound): higher volume of distribution; t1/2 ([5]; unlabeled compound): shorter t1/2 |
| – | CC(CCCCCF)(C(=O)O)C(=O)O [ML-10, (5-fluoropentyl)(methyl)propanedioic acid, reference compound] | – | 0.01 | 32.6 | 11.2 | 10.2 | 0.152 | (11.4%) | (21.0%) | half-life ([2]; Naive mice, tritiated, read-out: t1/2): 10 min |
